In the assay the test system is CNPase. Kind of assay: CNPase enzyme activity in Ang-II induced cardiac hypertrophy cells. In kind it is cell-based. Conditions: n = 3. The text has this:
The enzyme activity of CNPase in hypertrophic myocardium was detected by the detection method of calf intestinal alkaline phosphatase activity.

As for `C[C@@]12CC[C@@H]3[C@@](CC[C@H]4[C@@]3(C)CCC[C@@]4(C)C(=O)[O-])(CC1=O)C2.[Na+]` [STVNa, sodium isosteviol], the CNPase activity is given as 0.9629 ± 0.411 (STVNa + Ang II, cardiac hypertrophy induced by Ang-II, Control 1.000, Ang-II alone 0.2266); “enhances CNPase activity” (STVNa + Ang II, cardiac hypertrophy induced by Ang-II, Control 1.000, Ang-II alone 0.2266, listed as sodium isosteviol); 0.9326 ± 0.241 (STVNa alone, no Ang-II, Control 1.000).

For the origin of these results see patent US20240016769A1, “Method for preparing compound or biological drug enhancing CNPase activity for treating heart diseases” (ZHUHAI YUANZHI HEALTH TECH CO. LTD., priority 2020, published 2024).
